Experimental findings from ChEMBL document CHEMBL1128025, “Synthesis and evaluation of pyridyl analogs of L-735,524: Potent HIV-1 protease inhibitors” (Bioorg Med Chem Lett, 1994) are described below.

Structures are written as SMILES.

Data set [1] deals with Human immunodeficiency virus type 1 protease (Human immunodeficiency virus 1, UniProt Q72874). Nature of the data set: Inhibition of Human Immunodeficiency virus-1 protease.
A short description of data set [2]: Concentration maxima after oral dosing in dogs. Format: ADME, organism-based, Canis lupus familiaris. More on the design: route oral. The settings on record: dog, in vivo.
Data set [3] relates to Human immunodeficiency virus. Nature of the data set: Compound was tested for cellulr inhibition of HIV was determined. Type of data set: functional. The settings on record: Human immunodeficiency virus 1.
Data set [4] relates to Human immunodeficiency virus. Description: Compound was tested for cellulr inhibition of HIV was determined; Range is 6-12. Type of data set: functional. The conditions noted are these: Human immunodeficiency virus 1.
The test system of data set [5] is Human immunodeficiency virus. Nature of the data set: Compound was tested for cellulr inhibition of HIV was determined; Range is 12-25. Format: functional. The conditions noted are these: Human immunodeficiency virus 1.
Data set [6] deals with Human immunodeficiency virus. Nature of the data set: Compound was tested for cellulr inhibition of HIV was determined; Range is 25-50. Type of data set: functional. The settings on record: Human immunodeficiency virus 1.

In general, IC50 refers to the point on the concentration scale where inhibition reaches its midpoint. Low values mean higher potency, high ones lower potency. Broadly, the Cmax is the highest concentration seen after dosing. The IC95 is the point of the concentration-response curve where the effect stands at 95%. Read a low IC95 as an effect from little substance. As to `CC(C)(C)NC(=O)[C@@H]1CN(Cc2cccnc2)CCN1C[C@@H](O)C[C@@H](Cc1ccncc1)C(=O)N[C@H]1c2ccccc2C[C@H]1O`, the IC50 in data set [1] is 1.7 nM. Further, the Cmax in data set [2] was determined as 414 nM. The compound further showed a concentration for an effect of 95% (IC95) in data set [3] above 200 nM.
In the case of `CC(C)(C)NC(=O)[C@@H]1CN(Cc2cc3sccc3s2)CCN1C[C@@H](O)C[C@@H](Cc1cccnc1)C(=O)N[C@H]1c2ccccc2C[C@H]1O`, the IC50 in data set [1] came out at 0.09 nM. The compound also showed an IC95 in data set [4] of 12 nM. The compound also yielded a Cmax in data set [2] of 3290 nM.
The compound `CC(C)(C)NC(=O)[C@@H]1CN(Cc2cccnc2)CCN1C[C@@H](O)C[C@@H](Cc1cccnc1)C(=O)N[C@H]1c2ccccc2C[C@H]1O` yielded an IC50 in data set [1] of 1.7 nM. In data set [3], this compound came in with a concentration for an effect of 95% (IC95) above 200 nM.
`CC(C)(C)NC(=O)[C@@H]1CN(Cc2c(F)cccc2F)CCN1C[C@@H](O)C[C@@H](Cc1cccnc1)C(=O)N[C@H]1c2ccccc2C[C@H]1O` gave an IC50 in data set [1] of 0.14 nM. The compound further had a Cmax in data set [2] of 1010 nM. For the same compound, the 95% effect level in data set [3] (IC95) was put at 12.2 nM.
In the case of `CC(C)(C)NC(=O)[C@@H]1CN(Cc2cc(Br)cs2)CCN1C[C@@H](O)C[C@@H](Cc1ccncc1)C(=O)N[C@H]1c2ccccc2C[C@H]1O`, the midpoint of inhibition in data set [1], the IC50, lay at 0.11 nM. Besides, the Cmax in data set [2] is 2200 nM. Also, the 95% effect concentration (IC95) in data set [5] is 25 nM.
With `CC(C)(C)NC(=O)[C@@H]1CN(Cc2c(F)cccc2F)CCN1C[C@@H](O)C[C@@H](Cc1ccncc1)C(=O)N[C@H]1c2ccccc2C[C@H]1O`, the IC50 in data set [1] was 0.48 nM. Further, in data set [2], the Cmax was 8060 nM. Besides, the IC95 in data set [6] worked out at 50 nM.
`CC(C)(C)NC(=O)[C@@H]1CN(Cc2cc(Br)cs2)CCN1C[C@@H](O)C[C@@H](Cc1cccnc1)C(=O)N[C@H]1c2ccccc2C[C@H]1O`: in data set [1], 0.03 nM corresponded to half-maximal inhibition (IC50). Besides, in data set [2], the Cmax was found to be 633 nM. Also, the IC95 in data set [3] was 25 nM.
For `CC(C)(C)NC(=O)[C@@H]1CN(S(=O)(=O)c2cccc3cccnc23)CCN1C[C@@H](O)C[C@@H](Cc1ccncc1)C(=O)N[C@H]1c2ccccc2C[C@H]1O`, inhibition in data set [1] was half-maximal at 0.015 nM (IC50). In data set [3], this compound had an IC95 of 200 nM.
Consider `CC(C)(C)NC(=O)[C@@H]1CN(Cc2cc3ccsc3s2)CCN1C[C@@H](O)C[C@@H](Cc1ccncc1)C(=O)N[C@H]1c2ccccc2C[C@H]1O`, for which, in data set [1], it took 0.06 nM to reach half-maximal inhibition (IC50). In data set [4], this compound showed an IC95 of 12 nM. In addition, in data set [2], the Cmax came to 1730 nM.
As to `CC(C)(C)NC(=O)[C@@H]1CN(S(=O)(=O)c2cccc3cccnc23)CCN1C[C@@H](O)C[C@@H](Cc1cccnc1)C(=O)N[C@H]1c2ccccc2C[C@H]1O`, the IC50 in data set [1] was determined as 0.03 nM. In data set [3], this compound displayed an IC95 above 200 nM.
Take `CC(C)(C)NC(=O)[C@@H]1CN(Cc2cc3ccsc3s2)CCN1C[C@@H](O)C[C@@H](Cc1cccnc1)C(=O)N[C@H]1c2ccccc2C[C@H]1O`: half-maximal inhibition in data set [1] (IC50) required 0.12 nM. For the same compound, the 95% effect level in data set [4] (IC95) was put at 12 nM. Besides, the peak level in data set [2] (Cmax) was 7290 nM.
In the same order, the values of `CC(C)(C)NC(=O)[C@@H]1CN(Cc2cc3sccc3s2)CCN1C[C@@H](O)C[C@@H](Cc1ccncc1)C(=O)N[C@H]1c2ccccc2C[C@H]1O` are 0.05 nM, 12 nM and 1590 nM.
The compound `CC(C)(C)NC(=O)[C@@H]1CN(Cc2cccnc2)CCN1C[C@@H](O)C[C@@H](Cc1ccccc1)C(=O)N[C@H]1c2ccccc2C[C@H]1O` [INDINAVIR] registered an IC95 in data set [3] of 50 nM.
